# Assay results published in patent US20150224066A1 (priority 2012, published 2015).
# Several values for one entry are separate records, joined by “and”; a condition that tells them apart may be missing. Equal values may be shown once. Entries after “also recorded” stand apart in the source; their conditions may differ. Read-outs that look alike come from different tables or passages of the source.
# What was measured:
# S. aureus MN8 [1] = type: cell-based, Staphylococcus aureus
# B. anthracis Sterne = type: cell-based, Bacillus anthracis; details: for bactericidal concentration / bacteriostatic concentration: 24 h; for antimicrobial activity / growth inhibition: 24 h incubation
# S. aureus MN8 [2] = type: cell-based, Staphylococcus aureus; remark: listed apart in the source
# [3] = test system: Streptococcus pyogenes MNWA; type: cell-based
# [4] = test system: Streptococcus agalactiae MNSI; type: cell-based
# [5] = test system: TSST-1 production by S. aureus MN8; type: cell-based, Staphylococcus aureus
# [6] = test system: TSST-1 production by S. aureus CDC587; type: cell-based, Staphylococcus aureus
# [7] = test system: TSST-1 production by S. aureus MNPE; type: cell-based, Staphylococcus aureus
# S. aureus CDC587 = type: cell-based, Staphylococcus aureus
# S. aureus MNPE = type: cell-based, Staphylococcus aureus
# S. aureus MN8 [8] = type: cell-based, Staphylococcus aureus; remark: listed apart in the source
# S. aureus = type: cell-based, Staphylococcus aureus
structure (smiles),measurement,setting,value
COC1=C(OC)C(=O)C(C/C=C(\C)CC/C=C(\C)CCC=C(C)C)=C(C)C1=O [coenzyme Q3],bactericidal concentration (≧3 log drop in CFUs/ml),S. aureus MN8 [1],50 μg/ml
same,bacteriostatic concentration (<3 log drop in CFUs/ml),S. aureus MN8 [1],25 μg/ml
same,bactericidal concentration,B. anthracis Sterne,50 µg/mL
same,bacteriostatic concentration,B. anthracis Sterne,25 µg/mL
"CCCCCCCCCCCC(=O)OCC(O)CO (stereo not drawn) [GML, glycerol monolaurate]",growth inhibition of S. aureus MN8,S. aureus MN8 [2],did not inhibit; also recorded: not inhibitory
"COC1=C(OC)C(=O)C(C/C=C(\C)CC/C=C(\C)CC/C=C(\C)CC/C=C(\C)CC/C=C(\C)CC/C=C(\C)CC/C=C(\C)CC/C=C(\C)CC/C=C(\C)CCC=C(C)C)=C(C)C1=O [coenzyme Q10, reference compound]",antimicrobial activity / growth inhibition,S. aureus MN8 [1],no antimicrobial activity
same,antimicrobial activity / growth inhibition,B. anthracis Sterne,no antimicrobial activity
same,antimicrobial activity / growth inhibition,[3],lacked antimicrobial activity
same,antimicrobial activity / growth inhibition,[4],lacked antimicrobial activity
same,inhibition of TSST-1 production,[5],did not inhibit
same,inhibition of TSST-1 production,[6],did not inhibit
same,inhibition of TSST-1 production,[7],did not inhibit
CC1=CC(=O)c2ccccc2C1=O [menadione],antimicrobial activity / growth inhibition,S. aureus MN8 [1],inhibits the growth; also recorded: strong antimicrobial activity
same,antimicrobial activity,S. aureus CDC587,comparably bacteriostatic and bactericidal
same,antimicrobial activity,S. aureus MNPE,comparably bacteriostatic and bactericidal
same,bactericidal concentration,B. anthracis Sterne,≥ 25 µg/mL
same,bacteriostatic concentration,B. anthracis Sterne,6.25 µg/mL and 12.5 µg/mL
same,antimicrobial activity / growth inhibition,B. anthracis Sterne,strong antimicrobial activity
same,antimicrobial activity / growth inhibition,B. anthracis Sterne; listed as Menadione,inhibits the growth
same,antimicrobial activity / growth inhibition,[3],inhibits the growth; also recorded: strong antimicrobial activity
same,bactericidal concentration,[3],50 µg/mL and 100 µg/mL
same,bacteriostatic concentration,[3],25 µg/mL
same,antimicrobial activity / growth inhibition,[4],inhibits the growth; also recorded: strong antimicrobial activity
same,bacteriostatic concentration,[4],6.25 mg/mL and 12.5 mg/mL
same,concentration at which TSST-1 production was completely inhibited (no detectable TSST-1),[5],≥ 3.1 µg/mL
same,doses that failed to inhibit TSST-1 production,[5],< 3.1 µg/mL
same,bactericidal concentration,S. aureus MN8 [8],≥ 50 µg/mL
same,concentration of complete killing,S. aureus MN8 [8],200 µg/mL
same,"difference in bactericidal concentration, anaerobic versus aerobic",S. aureus MN8 [8],4 fold
same,"difference in concentration of complete killing, anaerobic versus aerobic",S. aureus MN8 [8],16 fold
same,growth inhibition when cultured aerobically compared to anaerobically,S. aureus MN8 [8],more effective
same,generation of resistant mutants,S. aureus,failed to generate resistant mutants
"CC1=C(C/C=C(\C)CCC[C@H](C)CCC[C@H](C)CCCC(C)C)C(=O)c2ccccc2C1=O [phylloquinone, reference compound]",antimicrobial activity / growth inhibition,S. aureus MN8 [1],no antimicrobial activity
same,antimicrobial activity / growth inhibition,B. anthracis Sterne,no antimicrobial activity
same,antimicrobial activity / growth inhibition,[3],no antimicrobial activity
same,antimicrobial activity / growth inhibition,[4],no antimicrobial activity
same,inhibition of TSST-1 production,[5],did not inhibit
same,inhibition of TSST-1 production,[6],did not inhibit
same,inhibition of TSST-1 production,[7],did not inhibit
COC1=C(OC)C(=O)C(C/C=C(\C)CCC=C(C)C)=C(C)C1=O [coenzyme Q2],bactericidal concentration (≧3 log drop in CFUs/ml),S. aureus MN8 [1],50 μg/ml
same,bacteriostatic concentration (<3 log drop in CFUs/ml),S. aureus MN8 [1],25 μg/ml
same,bactericidal concentration,B. anthracis Sterne,≥ 25 µg/mL
same,bacteriostatic concentration,B. anthracis Sterne,12.5 µg/mL
"O=C1C=CC(=O)c2ccccc21 [1,4-naphthoquinone]",antimicrobial activity / growth inhibition,S. aureus MN8 [1],strong antimicrobial activity
same,fold less active than menadione,S. aureus MN8 [1],approximately 2 fold
same,fold less active than menadione,B. anthracis Sterne,approximately 2 fold
same,antimicrobial activity / growth inhibition,B. anthracis Sterne,strong antimicrobial activity
same,antimicrobial activity / growth inhibition,[3],strong antimicrobial activity
same,fold less active than menadione,[3],approximately 2 fold
same,antimicrobial activity / growth inhibition,[4],strong antimicrobial activity
same,fold less active than menadione,[4],approximately 2 fold
